This is an account of results in US8507448B2, “Human CD154-binding synthetic peptide and uses thereof” (Fresenius Medical Care Deutschland G.m.b.H., priority 2007, dated 2013).

For one series, the system named is human platelets. Kind of series: Platelet aggregation assay (aggregometer). Type of series: cell-based. The method, then:
Platelet aggregation was measured with an aggregometer, as the increase in light transmission compared to the control. Priming of human platelets with the anti-human CD154 antibody in combination with rhsCD154 increases platelet aggregation upon stimulation with ADP 0.5 μM.
Finally, one of the major advantages of peptide 4.10 is its lack of reactivity towards human platelets. It is know that in the past, a number of clinical trials carried out to test promising anti-CD154 monoclonal antibodies were suddenly discontinued due to dramatic prothrombotic side effects (Kelsoe G. et al, J. Clin. Invest. 2003). The hypothesis is that the anti-CD154 antibodies had triggered a cross-reaction on the surface of human platelets expressing the receptor for the Fc immunoglobulin fraction (FcR) and, after activation, the CD154 molecule. Thus, the inventors tested the effect of peptide 4.10 on platelets, by a platelet aggregation assay. Such experiments were carried out by the use of a thermostatic aggregometer, equipped with a magnetic stirrer and a real time optical density meter. Platelet aggregation was evaluated as the change in optical density versus the reference sample (blank). The experiments were carried out on platelets extracted from peripheral whole blood of healthy donors collected in tubes containing 5 U/ml heparin. In particular, the platelet enriched plasma (PRP), was obtained by whole blood centrifugation at 900 rpm for 20 minutes, while the platelet poor plasma (PPP), used as the reference sample, was obtained collecting the supernatant after another centrifugation at 3000 rpm for 10 minutes. […] Similar results were obtained inducing platelet aggregation with 0.3 U/ml thrombin.

Series [1] addresses T1, human CD154 expressed on the surface of J558L cells (Homo sapiens, UniProt P29965).
T1 construct: expressed in transfected cells; host or cells: J558L murine myeloma cell line transfected with human CD154
T1 sequence (P29965 1-261): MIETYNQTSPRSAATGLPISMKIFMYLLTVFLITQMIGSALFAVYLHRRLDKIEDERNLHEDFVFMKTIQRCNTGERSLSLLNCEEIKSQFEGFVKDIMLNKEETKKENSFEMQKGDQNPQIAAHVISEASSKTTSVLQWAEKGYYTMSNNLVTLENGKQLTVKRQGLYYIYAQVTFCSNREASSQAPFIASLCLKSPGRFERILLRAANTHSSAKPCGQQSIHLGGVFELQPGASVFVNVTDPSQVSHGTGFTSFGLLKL
Kind of series: Binding of -His6-tagged peptides to J558L CD154+ cells by flow cytometry. Particulars: -His6 peptides 60 μM, 30 minutes at room temperature. As to the method: FIG. 2 represents the binding of the seven peptides obtained from the human CD154-binding clones and tagged with a 6 histidines tail (-His6) to the J558L CD154^+ cells. […] The cells were incubated with each of the -His6-tagged peptides and then with a phycoerythrin-conjugated secondary antibody specific for the -His6 tail. The dotted histogram is the isotopic control, whilst the black line is the binding intensity of the CD154-specific peptides [4.2=4.3=CPSGHTKAC (SEQ ID NO: 1), 4.4=CGTHSSRIC (SEQ ID NO: 2), 4.6=CLGTQNKEC (SEQ ID NO: 3), 4.7=4.12=CTPGKPHSC (SEQ ID NO: 4), 4.8=CKAASANIC (SEQ ID NO: 5), 4.10=CLPTRHMAC (SEQ ID NO: 6) and 4.11=CLSAVHNMC (SEQ ID NO: 7)]. For each experimental condition, 10,000 events were analyzed and the values are the mean and standard deviation of 3 different experiments.
(§1) The peptides were synthesized and conjugated with biotin (-bio) or with a 6-histidine tail (-his6) so as to enable in vitro and in vivo localization. […] Furthermore, a competition assay between the peptides and an anti-human CD154 fluorescein-conjugated antibody (Serotec) specifically recognizing the active site of CD154 was carried out. The J558L cells were incubated with the his6-peptides for 30 minutes at room temperature and then with anti-human CD154 fluorescein-conjugated antibody for another 30 minutes at room temperature. […] In order to identify the amino acid residues of the amino acid sequence of peptide 4.10 which are essential to the binding to CD154, three different peptides were synthesized, each one carrying a point mutation, which amino acid sequences differ from that of peptide 4.10 by replacement of the amino acid residues at positions 4, 5, 6, respectively, with one alanine residue.
The mutated peptides were not capable of recognizing human CD154 expressed at the surface of J558L cells (data not shown).
Similar results were obtained with the four modified peptides 4.101, 4.102, 4.103 e 4.104 having the amino acid sequences illustrated in table II.

The test system of series [2] is control J558 cells (CD154-negative). Kind of series: Binding to control CD154-negative J558 cells by flow cytometry. On the set-up: species or system murine. Particulars: -His6 peptides. (In general: Flow cytometry measures light scatter and fluorescence of single cells or particles in a stream.)
Series [3] has as its target T2, active site of human CD154 (Homo sapiens, UniProt P29965).
T2 construct: expressed in transfected cells; host or cells: J558L murine myeloma cell line transfected with human CD154
T2 sequence (P29965 1-261): T1 sequence (P29965 1-261)
In words: Competition with anti-human CD154 fluorescein-conjugated antibody on J558L cells. Particulars: -His6 peptides 30 minutes at room temperature, then antibody. It counts as binding. As to the method:
The murine myeloma cells transfected with human CD154, J558L, were incubated with each of the seven anti-CD154 peptides tagged with a 6 histidines tail (-His6), and then with the anti-CD154 fluorescein-conjugated antibody. The ability of the peptides to compete with the anti-CD154 antibody for the binding to the CD154 molecule expressed on the surface of the J558L cells was evaluated by flow cytometry, as the reduction in the fluorescence intensity compared to the positive control represented by cells incubated with the anti-human CD154 fluorescein-conjugated antibody alone. […] The amino acid sequence of the control peptide differs from that of peptide 4.10 in that an arginine residue is replaced with an alanine residue at amino acid position 5.
as §1

Series [4] deals with CD40 stimulation of peripheral B cells by rhsCD154. In words: rhsCD154-induced B cell activation (CD80 and CD86 membrane expression). It counts as cell-based, human. The method, then:
The histograms of 4A show the effect of the anti-CD154 peptides and the control peptide 4.10-ala, on the activation B cells induced by stimulation with a soluble recombinant human CD154 molecule (rhsCD154). B cells were stimulated for 48 hours with rhsCD154 in the absence and in the presence of a blocking anti-human CD154 antibody or one of the seven selected peptides. Peripheral B cell activation was evaluated by flow cytometry, as the membrane expression of the co-stimulatory molecules CD80 and CD86. […] On the contrary, the activation is prevented when rhsCD154 is used in combination with a blocking anti-human CD154 antibody or with peptide 4.10 (SEQ ID NO: 6).
B cells are known to constitutively express the CD40 molecule on the cells membrane (van Kooten C. et al, J. Leukoc. Biol. 2000). Stimulation of CD40 by CD154-expressing activated T cells, results in B cells activation, proliferation and isotype switching. The inventors employed B cells isolated from whole peripheral blood of healthy donors by gradient-Ficoll centrifugation and immunomagnetical separation (MACS systems—Milteniy). The quiescent B cells thereby obtained, were then stimulated with a soluble form of human recombinant CD154 (rhsCD154) to induce activation and expression of the co-stimulatory molecules CD80 (B7-1) and CD86 (B7-2) on the cell membrane. A drastic increase in membrane expression of CD80 and CD86 on the cell surface of peripheral B cells, after stimulation for 48 hours with rhsCD154 (100 ng/ml) was observed. […] In contrast, pre-incubation for 15 minutes at 37° C. of rhsCD154 (100 ng/ml) with peptide 4.10 (SEQ. ID NO: 6), prior to lymphocyte stimulation, blocked B cells stimulation and the related expression of CD80 and CD86. […] The results are the mean±standard deviation of five different experiments. Similar results were also obtained with B cells isolated from human spleen fragments. […] These experiments were carried out on […] naive B cells, obtained from peripheral blood by negative selection, by depletion of mature lymphocytes from the B cell pool by immunomagnetic separation (MACS Systems Milteniy).

The next series deals with HUVEC. In words: In vitro angiogenesis: cell cord formation of HUVECs on Matrigel. It counts as cell-based, human. Particulars: pre-incubated with rhsCD154 100 ng/ml for 15 minutes at 37° C.; 4 hours. The text has this: FIGS. 7B-F show representative images of cell cord formation ability on Matrigel under the various experimental conditions mentioned above (B=unstimulated control; C=rhsCD154; D=rhsCD154+ 4.10 peptide; E=rhsCD154+ 4.10-ala peptide; F=rhsCD154+ blocking anti-CD154 antibody). Peptide 4.10 of the invention (SEQ ID NO: 6), contrary to control peptide 4.10-ala (SEQ ID NO: 8), inhibits the rhsCD154-induced ability of the endothelial cells of forming cell cords.
Furthermore, in order to evaluate the inhibitory effect, rhsCD154 (100 ng/ml) was pre-incubated for 15 minutes at 37° C. with peptide 4.10 (SEQ. ID NO: 6), or with control peptide 4.10-ala (SEQ. ID NO: 8), or with a blocking anti-human CD154 antibody. The flasks were then observed at 10× magnification for a period of 4 hours under a phase contrast inverted microscope equipped with a thermostatic chamber (at about 37° C.). The cells were photographed with a camera connected to the microscope, over the whole length of time of 4 hours at regular intervals of 15 minutes each. The migratory speed of each of the cells was calculated based on the position of the nucleus of each single cell in each single frame, using an image analysis software and, as a result, the average cell migratory speed (1 standard deviation) was calculated for each experimental condition. […] As a further confirmation of the ability of peptide 4.10 to prevent human endothelial CD40 stimulation by rhsCD154 (100 ng/ml), HUVECs (3.5×10^4) were subjected to an in vitro angiogenesis assay. HUVECs were plated on a tumor matrix (Matrigel, BD) capable of promoting the formation of super cellular organization, in a basal RPMI medium supplemented with 5% serum. Upon incubation at 37° C. under 5% CO2 for 4 hours, the cells were observed under a contrast phase inverted microscope.

The mark [5] stands for this setting: peptide 250 μM with rhsCD154 100 ng/ml.

Positions of bridges follow the written chain, without caps; N, C: chain ends. Residues, ends and D or L forms follow the SMILES beside them. No end group written: not given here.

Regarding `CSCC[C@@H]1NC(=O)[C@H](Cc2c[nH]cn2)NC(=O)[C@H](CCCNC(=N)N)NC(=O)[C@H]([C@@H](C)O)NC(=O)[C@@H]2CCCN2C(=O)[C@H](CC(C)C)NC(=O)[C@@H](N)CSSC[C@@H](C(=O)O)NC(=O)[C@H](C)NC1=O` [peptide 4.10, CLPTRHMAC] (H-CLPTRHMAC-OH; disulfide 1-9), the “platelet aggregation induced by ADP 0.5 μM after priming” value with human platelets (priming 10 minutes at 37° C., peptide 60 μM with CD154) is on record as “did not enhance platelet aggregation”. In addition, in the series on human platelets (thrombin 0.3 U/ml), the “activation of human platelet aggregation with thrombin at a subliminal dose” value was “inactive”.

Consider “CGTHSSRIC (disulfide 1-9 (inferred)) [4.4]”, for which, in series [1], the “binding to J558L CD154+ cells” value was “capable of specifically binding”. Besides, in series [2], the “binding to control J558 cells” value was “not capable of binding”.

For “CIPTRHMAC (binding protein) [4.101, modified form of peptide 4.10]”, in series [1], the “binding to J558L CD154+ cells” value is on record as “None of these peptides proved to be capable of binding”.

As to “CIPTRHMVC (binding protein) [4.103, modified form of peptide 4.10]”, the “binding to J558L CD154+ cells” value in series [1] is reported as “None of these peptides proved to be capable of binding”.

For “CKAASANIC (disulfide 1-9 (inferred)) [4.8]”, the “binding to J558L CD154+ cells” value in series [1] is given as “capable of specifically binding”. For the same molecule, the “binding to control J558 cells” value in series [2] was “not capable of binding”.

Consider “CLGTQNKEC (disulfide 1-9 (inferred)) [peptide 4.6]”, for which the “binding to J558L CD154+ cells” value in series [1] is reported as “capable of specifically binding”. In addition, the “binding to control J558 cells” value in series [2] is given as “not capable of binding”. For the same molecule, the “competition with anti-human CD154 fluorescein-conjugated antibody specific for the active site of CD154” value in series [3] was “do not specifically bind to the active site”. Besides, in series [4] (setting [5]), the “expression of CD80 compared to basal levels” value is on record as 117% and the “expression of CD86 compared to basal levels” value was 122%. Besides, the “effect on rhsCD154-induced formation of vessel-like cell cords on Matrigel” value with HUVEC is reported as “not capable of significantly reducing the stimulation of endothelial CD40”.

As to “CLPSRHMAC (binding protein) [4.102, modified form of peptide 4.10]”, the “binding to J558L CD154+ cells” value in series [1] is recorded as “None of these peptides proved to be capable of binding”.

Take “CLPTRWMAC (binding protein) [4.104, modified form of peptide 4.10]”: the “binding to J558L CD154+ cells” value in series [1] was “None of these peptides proved to be capable of binding”.

For “CLSAVHNMC (disulfide 1-9 (inferred)) [peptide 4.11]”, the “binding to J558L CD154+ cells” value in series [1] is on record as “capable of specifically binding”. The “binding to control J558 cells” value in series [2] was “not capable of binding”. Besides, in series [3], the “competition with anti-human CD154 fluorescein-conjugated antibody specific for the active site of CD154” value is on record as “do not specifically bind to the active site”. In series [4] (250 μM), the “inhibition of rhsCD154-induced B cell activation (CD80 and CD86 expression)” value was “not stably reproducible”. In the series with HUVEC, the “effect on rhsCD154-induced formation of vessel-like cell cords on Matrigel” value is “not capable of significantly reducing the stimulation of endothelial CD40”.

For the molecule “CPSGHTKAC (disulfide 1-9 (inferred)) [4.2=4.3]”, in series [1], the “binding to J558L CD154+ cells” value is given as “capable of specifically binding”. The “binding to control J558 cells” value in series [2] was “not capable of binding”.

“CTPGKPHSC (disulfide 1-9 (inferred)) [4.7=4.12]”: the “binding to J558L CD154+ cells” value in series [1] is listed as “capable of specifically binding”. Moreover, the “binding to control J558 cells” value in series [2] is “not capable of binding”.
